Patent publication US20100279976A1, “USE OF ARTEMISININ AND ITS DERIVATIVES IN CANCER THERAPY” (SHANGHAI INSTITUTES FOR BIOLOGICAL SCIENCES, CAS, priority 2009, published 2010)

What was measured:
[1] = system: 7702 normal human liver cells; assay: MTT cell viability assay, normal liver cells; assay type: cell-based; details: 7702 cells, 48 h; for IC20: read-out: IC20 (concentration that reduces growth by 20%)
Procedure: (§1) The effects of ART derivatives on the viability of the aforementioned cells may be determined using the MTT assay. Briefly, 2,000 cells per well were plated in triplicate in 96-well plates. After a 24-h incubation, the cells may be treated with varying concentrations of ART derivatives (0, 1, 5, 10, 25, 50, and 100 μmol/L) for 48 h. The MTT assay may be performed according to the manufacture's instruction and the resultant formazan crystals may be dissolved in DMSO (100 μL). The absorbance may be then recorded at 540 nm. The effects of ART derivatives on cell viability may be assessed by comparing the percent cell viability of the treated cells with the vehicle (DMSO)-treated control cells, which may be arbitrarily assigned at 100% viability. The experiment may be repeated thrice under the same conditions.

[2] = system: HepG2 hepatoma cells (p53 wild-type); assay: MTT cell viability assay, HepG2; assay type: cell-based; details: Homo sapiens, 48 h
Procedure: as §1

[3] = system: Hep3B hepatoma cells (p53 null); assay: MTT cell viability assay, Hep3B; assay type: cell-based; details: Homo sapiens, 48 h
Procedure: as §1

[4] = system: Huh-7 hepatoma cells (p53 mutant); assay: MTT cell viability assay, Huh-7; assay type: cell-based; details: Homo sapiens, Huh-7 (p53 mutant), 48 h
Procedure: as §1

[5] = system: four hepatoma cell lines (HepG2, Hep3B, Huh-7, BEL-7404); assay: MTT assay, mean over four hepatoma cell lines; assay type: cell-based; details: Homo sapiens, mean of HepG2, Hep3B, read-out: overall mean IC50 in the four hepatoma cell lines
Procedure: as §1

HepG2 cells [6] = assay: MTT growth inhibition time course, alone or with gemcitabine; assay type: cell-based; details: Homo sapiens, HepG2, 10 μmol/L
Procedure: In addition, the growth-inhibitory effects of ART and DHA and the effects in combination with gemcitabine in HepG2 and Hep3B cells may also be determined using the MTT assay. Briefly, 700 cells per well may be plated in 96-well culture plates. After a 24-h incubation, the cells may be treated with 10 μmol/L ART, 10 μmol/L DHA, 10 μg/L gemcitabine, 10 μmol/L ART plus 10 μg/L gemcitabine, or 10 μmol/L DHA plus 10 μg/L gemcitabine for various times (0, 24, 48, 72, and 96 h). The results reflect the average of three replicates.

HepG2 cells [7] = assay: Cell cycle analysis (propidium iodide, flow cytometry), HepG2; assay type: cell-based, human
Procedure: (§2) Cells (2×10^5) may be treated with ART and DHA (0, 1, 10, 25, and 50 μmol/L) as described above for 48 h. The harvested cells may be re-suspended in 200 μL of cold PBS, to which cold ethanol (600 μl) may be added, and the mixture may then be incubated for 2 h at 4° C. After centrifugation, the pellet may be washed with cold PBS, suspended in 500 μL PBS, and incubated with 50 μL RNase (20 μg/mL final concentration) for 30 min. The cells may be incubated with propidium iodide (50 μg/mL final concentration) for 30 min in the dark. The cell cycle distribution may be determined using a FACSAria instrument (BD Biosciences). The experiment may be repeated thrice under the same conditions.

Hep3B cells = assay: Cell cycle analysis (propidium iodide, flow cytometry), Hep3B; assay type: cell-based, human; details: 48 h
Procedure: as §2

HepG2 xenograft tumors = assay: HepG2 xenograft model in nude mice; assay type: in vivo; details: for tumor growth inhibition: HepG2 xenograft, 5 d/wk for 4 wk
Procedure: (§3) Female athymic nude mice (nu/nu; 4-6 wk of age) may be obtained from Shanghai Slac Laboratory Animal Co. Ltd. All animals may be fed with commercial diet and water ad libitum. The human HCC xenograft models in mice may be as follows. Briefly, HepG2 and Hep3B cells may be re-suspended in serum-free DMEM with Matrigel basement membrane matrix at a 5:1 ratio. The cell suspension may then be injected (7×10^6 cells; total volume, 0.2 mL) into the left inguinal area of the BALB/c nude mice. The animals may be monitored for activity and physical condition everyday, and the determination of body weight and measurement of tumor mass may be done every 3 d. Tumor mass may be determined by caliper measurement in two perpendicular diameters of the implant and calculated using the formula ½a×b^2, where a stands for the long diameter and b is the short diameter. The animal use and care protocol is approved by the Institutional Review Board of the Institute for Nutritional Sciences, Chinese Academy of Sciences.
(§4) Nude mice bearing HepG2 and Hep3B xenografts, randomly divided into various treatment and control groups (five mice per group), may be treated orally with either ART or DHA suspended in 5% sesame oil+95% saline, at a dose of 50 or 100 mg/kg/d, or a combination of ART or DHA with gemcitabine or with saline (as controls). In the mice receiving combination therapy, 80 mg/kg gemcitabine, representing one fifth of the reported most tolerated dose in mice, may be administered i.p. on days 7, 11, and 15 to avoid possible side effects and to illustrate potential chemo-sensitization effects in this combination regimen.

Hep3B xenograft tumors = assay: Hep3B xenograft model in nude mice; assay type: in vivo
Procedure: as §3, §4

[8] = system: A2780 ovarian carcinoma cells; assay: MTT cell viability assay, A2780; assay type: cell-based; details: Homo sapiens, A2780, 48 hrs
Description: (§5) Human ovarian IOSE144 (immortalized non-tumorigenic human ovarian surface epithelial cells) and ovarian carcinoma (A2780 and OVCAR-3) cells that may be obtained from the American Type Culture Collection (ATCC, Manassas, Va.) are gifts from Dr. Jing Fang (Institute for Nutritional Sciences, Shanghai, China). All cells may be cultured according to the ATCC instructions. The compounds (ARS, ART, ARM and DHA) may be dissolved in DMSO (<0.1%, final concentration).
as §1

[9] = system: OVCAR-3 ovarian carcinoma cells; assay: MTT cell viability assay, OVCAR-3; assay type: cell-based; details: Homo sapiens, OVCAR-3, 48 hrs
Description: as §5, §1

[10] = HepG2, 10 μmol/L, 48 h (control 63.05%)
[11] = HepG2 xenograft tissue, Western blot

C[C@@H]1CC[C@H]2[C@@H](C)C(=O)O[C@@H]3O[C@@]4(C)CC[C@@H]1[C@]32OO4 [ART, artemisinin]
IC50 [1]: 60.9 µM
IC80 ([1]; Homo sapiens): > 500 µM
IC20 ([1]; Homo sapiens): 3.6 µM
IC50 ([1]; Homo sapiens): ≥ 60.9 µM
IC20 [2]: 1.3 µM
IC50 [2]: 14 µM
IC80 [2]: 145 µM
IC20 [3]: 0.97 µM
IC50 [3]: 10.4 µM
IC80 [3]: 113 µM
IC20 [4]: 0.7 µM
IC50 [4]: 8.9 µM
IC80 [4]: 115 µM
IC50 [5]: 10.8 µM
inhibition at 10 µM (HepG2 cells [6]; 24 h, vs vehicle-treated cells): 69%
inhibition at 10 µM (HepG2 cells [6]; 48 h): 92%
inhibition at 10 µM (HepG2 cells [6]; 72 h): 96%
cells in the G1 phase (HepG2 cells [7]; [10]): 67.41%
cells in the G1 phase (HepG2 cells [7]; HepG2, 25 μmol/L, 48 h): 70.72%
cells in the G1 phase (HepG2 cells [7]; HepG2, 50 μmol/L, 48 h): 69.21%
cells in the G1 phase (Hep3B cells; 1 μmol/L): 66.11%
cells in the G1 phase (Hep3B cells; 10 μmol/L): 67.48%
cells in the G1 phase (Hep3B cells; 25 μmol/L): 68.70%
cells in the G1 phase (Hep3B cells; 50 μmol/L): 62.99%
G1-specific Cdks, cyclin D1, cyclin E, Cdk2, Cdk4, and E2F1 in tumor tissue (HepG2 xenograft tumors; [11]): decrease
MDM2 in tumor tissue (HepG2 xenograft tumors; [11]): decrease
activated caspase-3, cleaved PARP, Rb, p53, and the ratio of Bax/Bcl-2 in tumor tissue (HepG2 xenograft tumors; [11]): increases
p21 and p27 in tumor tissue (HepG2 xenograft tumors; [11]): increase
tumor growth inhibition (HepG2 xenograft tumors; oral 50 mg/kg/d): 30.0%
tumor growth inhibition (HepG2 xenograft tumors; oral 100 mg/kg/d): 39.4%
effect on tumor growth (Hep3B xenograft tumors; Hep3B xenograft, oral 50 and 100 mg/kg/d, alone): slight inhibitory effect on tumor growth
toxic effects (body weight) (Hep3B xenograft tumors; mouse, in vivo): Neither compound causes any observable toxic effects
IC20 [8]: 0.73 µM
IC50 [8]: 17.6 µM
IC80 [8]: 426 µM
IC20 [9]: 0.46 µM
IC50 [9]: 6.86 µM
IC80 [9]: 103 µM

C[C@H]1[C@@H](O)O[C@@H]2O[C@@]3(C)CC[C@H]4[C@H](C)CC[C@@H]1[C@@]24OO3 [DHA, dihydroartemisinin]
IC80 ([1]; Homo sapiens): > 500 µM
IC20 ([1]; Homo sapiens): 3.8 µM
IC20 [2]: 1.2 µM
IC50 [2]: 13.3 µM
IC80 [2]: 146 µM
IC20 [3]: 0.96 µM
IC50 [3]: 10.3 µM
IC80 [3]: 111 µM
IC20 [4]: 0.7 µM
IC50 [4]: 9.6 µM
IC80 [4]: 131 µM
IC50 [5]: 10.6 µM
inhibition at 10 µM (HepG2 cells [6]; 24 h, vs vehicle-treated cells): 74%
inhibition at 10 µM (HepG2 cells [6]; 48 h): 93%
inhibition at 10 µM (HepG2 cells [6]; 72 h): 97%
cells in the G1 phase (HepG2 cells [7]; [10]): 69.36%
cells in the G1 phase (HepG2 cells [7]; HepG2, 25 μmol/L, 48 h): 70.91%
cells in the G1 phase (HepG2 cells [7]; HepG2, 50 μmol/L, 48 h): 72.03%
cells in the G1 phase (Hep3B cells; 1 μmol/L): 68.11%
cells in the G1 phase (Hep3B cells; 10 μmol/L): 69.03%
cells in the G1 phase (Hep3B cells; 25 μmol/L): 70.50%
cells in the G1 phase (Hep3B cells; 50 μmol/L): 62.99%
toxic effects based on observations of bodyweight (HepG2 xenograft tumors; HepG2 xenograft mice, alone or in combination with gemcitabine): neither ART nor DHA causes any observable toxic effects
tumor growth inhibition (HepG2 xenograft tumors; oral 50 mg/kg/d): 36.1%
tumor growth inhibition (HepG2 xenograft tumors; oral 100 mg/kg/d): 60.6%
toxic effects (body weight) (Hep3B xenograft tumors; Hep3B xenograft mice): Neither compound causes any observable toxic effects
IC20 [8]: 0.83 µM
IC50 [8]: 16.4 µM
IC80 [8]: 328 µM
IC20 [9]: 0.56 µM
IC50 [9]: 6.58 µM
IC80 [9]: 77.4 µM
